From US12534436B2, “Disubstituted adamantyl derivative or pharmaceutically acceptable salt thereof, and pharmaceutical composition for suppressing cancer growth comprising same as active ingredient” (ONECUREGEN CO., LTD., priority 2020, dated 2026)

How the values were obtained:
intracellular oxygen = test: Intracellular oxygen with hypoxia probe MAR, HepG2 cells; format: cell-based, human; conditions: hypoxic conditions, 6 hours, 500 nM MAR (FIG. 3D)
Experimental: Since a decrease in mitochondrial respiration means an increase in the amount of intracellular oxygen, it was evaluated whether the amount of intracellular oxygen increased using MAR, an azo-based hypoxia probe that produces fluorescence under hypoxic conditions. Under hypoxic states, HepG2 cells were cultured with LW1564 (compound 21-3) for 6 hours, stained with 500 nM MAR according to the manufacturer's instructions (Chou, T. C. Theoretical basis, experimental design, and computerized simulation of synergism and antagonism in drug combination studies. Pharmacol. Rev. 58, 621-681 (2006)), and analyzed with an IncuCyte ZOOM® system (Essen BioScience, MI, USA).

[1] = test system: mitochondrial ETC complex I; test: Mitochondrial respiration assay, complex I (malate/pyruvate); format: cell-based, human; conditions: HepG2 cells, 100 μM LW1564 (FIG. 4B)
Experimental: (§1) Compounds that suppress mitochondrial respiration promote degradation of HIF-1α by increasing cellular oxygen content. Accordingly, it was investigated whether LW1564 (compound 21-3) affected mitochondrial respiration by measuring the oxygen consumption rate (OCR). Oxygen consumption was measured using an Oxytherm Clark-type electrode system (Hansatech, Norfolk, UK) (Chou, T. C. Theoretical basis, experimental design, and computerized simulation of synergism and antagonism in drug combination studies. Pharmacol. Rev. 58, 621-681 (2006)). HepG2 cells (2×10^7) were cultured with 2 μM LW1564 (compound 21-3) for 6 hours, collected, and then OCR was measured at 37° C. for 5 minutes with a thermoregulated controlled circulating system. For […] studies, digitonin-permeabilised HepG2 cells (2×10^7) were read on a detection device containing 2 ml of respiratory buffer (0.25 M sucrose, 2 mM KH2PO4, 5 mM MgCl2, 1 mM EDTA, 1 mM ADP, 20 mM MOPS, pH 7.4). The following substrates, which provide electrons to the components in the ETC, were then added: 5 mM sodium pyruvate, 5 mM sodium malate, 5 mM sodium succinate, 5 mM L-ascorbic acid and 0.2 mM N,N,N,N-tetra methyl-p-phenylenediamine (TMPD). Complex I, III and IV inhibitors (rotenone, antimycin A and KCN, respectively) were added to a final concentration of 1 μM. […]

HIF-1α mRNA = test: qPCR of HIF-1α mRNA; format: cell-based, human; conditions: qPCR (FIG. 2C)
Text: In addition, the amount of HIF-1α mRNA in LW1564-treated cells was investigated by a qPCR method. Total RNA was isolated using TRIzol reagent (Invitrogen), and cDNA was synthesized using TOPscript™ DryMIX (Enzynomics, Seoul, Korea). The HIF1A primer sequences are Fwd 5′-CTGACCCTGCACTCAATCAAG-3′ and Rev 5′-TGGGACTATTAGGCTCAGGTG-3.

various cancer cells = test: Cell viability by methylene blue colorimetric assay, various cancer cells; format: cell-based; conditions: Homo sapiens; range over the cancer cell lines, methylene blue assay (FIG. 1B); read-out: GI50, proliferation of various cancer cells
Experimental: Among the newly synthesized adamantyl compounds, it was evaluated how compound 21c (LW1564, Compound 21-3), FIG. 1A) affected proliferation suppression of various cancer cells. Human breast cancer cells (MCF7), human cervical cancer cells (HeLa), human colorectal cancer cells (HCT116, HCT15, LoVo, SW480, SW620 and WiDr), human fibrosarcoma cells (HT1080), human gastric cancer cells (NCI-N87, NUGC3 and SNU484), human liver cancer cells (HepG2, HT17, Huh7, SHJ1 and SK-Hep1), human lung cancer cells (A549 and H1299), human pancreatic cancer cells (AsPC1 and MIA-PaCa2) and normal lung fibroblasts (CCD-34Lu and WI-38) were purchased from the American Type Culture Collection (Manassas, Virginia, USA) or KRIBB Cell Line Bank (Daejeon). For cell culture, cells were cultured in a DMEM medium (Gibco, Grand Island, New York, USA) supplemented with 5% (v/v) fetal bovine serum (WelGENE, Daegu, Korea) and 100 U/ml penicillin and 100 μg/ml streptomycin (Gibco). Cells were maintained at 37° C. in a humidified incubator with 5% CO2, and hypoxia and a multi-gas incubator (Sanyo, Osaka, Japan) was adjusted to 1% O2, 94% N2 and 5% CO2. Cell viability was determined by methylene blue colorimetric assay as described in the “Chou, T. C. […] The dye was eluted with 0.1% HCl (v/v) and quantified at 600 nm on a Molecular Devices EMax (Molecular Devices, CA, USA). […]

[2] = test system: mitochondrial respiration; test: Oxygen consumption rate (OCR), Oxytherm Clark-type electrode, HepG2 cells; format: cell-based, human; conditions: 2 μM, 6 hours (FIG. 3A)
Experimental: Compounds that suppress mitochondrial respiration promote degradation of HIF-1α by increasing cellular oxygen content. Accordingly, it was investigated whether LW1564 (compound 21-3) affected mitochondrial respiration by measuring the oxygen consumption rate (OCR). Oxygen consumption was measured using an Oxytherm Clark-type electrode system (Hansatech, Norfolk, UK) (Chou, T. C. Theoretical basis, experimental design, and computerized simulation of synergism and antagonism in drug combination studies. Pharmacol. Rev. 58, 621-681 (2006)). HepG2 cells (2×10^7) were cultured with 2 μM LW1564 (compound 21-3) for 6 hours, collected, and then OCR was measured at 37° C. for 5 minutes with a thermoregulated controlled circulating system. For […] studies, digitonin-permeabilised HepG2 cells (2×10^7) were read on a detection device containing 2 ml of respiratory buffer (0.25 M sucrose, 2 mM KH2PO4, 5 mM MgCl2, 1 mM EDTA, 1 mM ADP, 20 mM MOPS, pH 7.4). The following substrates, which provide electrons to the components in the ETC, were then added: 5 mM sodium pyruvate, 5 mM sodium malate, 5 mM sodium succinate, 5 mM L-ascorbic acid and 0.2 mM N,N,N,N-tetra methyl-p-phenylenediamine (TMPD). Complex I, III and IV inhibitors (rotenone, antimycin A and KCN, respectively) were added to a final concentration of 1 μM.

HepG2 and A549 cells = test: Cell proliferation by live cell imaging system IncuCyte ZOOM; format: cell-based, human; conditions: IncuCyte ZOOM (FIG. 1C)
lipid synthesis = test: Nile red staining of lipid accumulation in HepG2 cells; format: cell-based, human; conditions: 24 hours (FIG. 5B)
Experimental: In order to explore this possibility, the effect of LW1564 (compounds 21-3) on lipid synthesis using Nile red, a fluorescent probe that binds to hydrophobic molecules such as lipid droplets was evaluated. Nile red staining was performed as described in “1. Huang, D. et al. HIF-1-mediated suppression of acyl-CoA dehydrogenases and fatty acid oxidation is critical for cancer progression. Cell Rep. 8, 1930-1942 (2014).” HepG2 cells were treated with LW1564 (compound 21-3) for 24 hours and then stained with 200 nM Nile Red and 1 μM Calcein AM for 10 minutes. Data were collected and analyzed with an IncuCyte ZOOM® system (Essen BioScience). For normalization, cell viability was measured using a cell-permeant fluorescent dye, Calcein AM.

Complex II/III = test: Mitochondrial respiration assay, complex II/III (succinate); format: cell-based, human; conditions: HepG2 cells (FIG. 4C)
Experimental: as §1

COc1cc2c(cc1OC)CN(C(=O)C13CC4CC(C1)CC(c1ccc(OCC(=O)N5CCN(Cc6ccc(C(F)(F)F)cc6)CC5)cc1)(C4)C3)CC2 [Compound 21c, 2-(4-(3-(6,7-Dimethoxy-1,2,3,4-tetrahydroisoquinoline-2-carbonyl)adamantan-1-yl)phenoxy)-1-(4-(4-(trifluoromethyl)benzyl)piperazin-1-yl) ethanone]
MAR fluorescence (hypoxia probe) (intracellular oxygen): significantly reduced fluorescence
oxygen consumption by complex I [1]: reduced oxygen consumption by complex I
amount of HIF-1α mRNA (HIF-1α mRNA): no change in the amount of HIF-1α mRNA
GI50 (various cancer cells): 400 to 4600 nM
oxygen consumption rate (OCR) [2]: significantly suppressed OCR
proliferation inhibition, live cell imaging (HepG2 and A549 cells): induced proliferation inhibition of HepG2 and A549 cells in a dose-dependent manner
lipid accumulation (Nile red) (lipid synthesis): reduced lipid accumulation in a concentration-dependent manner
oxygen consumption rate in the presence of succinate (Complex II/III): did not affect the oxygen consumption rate
